Among the test systems are 786-0 renal; HOP-92 NSCLC; TK-10 renal; SR leukemia; SF-539 CNS; A498 renal; KM12 colon; SW-620 colon; BT-549 breast; CAKI-1 renal; NCI-H23 lung; ACHN renal; HL-60(TB) leukemia; U251 CNS; NCI-H460 lung; T-47D breast; HOP-62 NSCLC; COLO 205 colon; HCT-15 colon; M19-MEL melanoma.
Holding throughout (test): NCI tumour cell line growth inhibition, 48 h

SMILES strings stand for the structures.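 Tested at 5 concentrations; 48 h exposure; 96-well plates; endpoints linearly interpolated, else capped at highest concentration. Definition used: TGI = concentration required for complete inhibition of growth.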 Bounds are passed on as bounds.

`COc1cccc(C(NC2=NCCC=N2)c2cc3c(cc2O)OCO3)c1O` (stereo not given): the TGI is 25.6 µM in the test on 786-0 renal; 77.5 µM in the test with HOP-92 NSCLC; more than 100 µM with TK-10 renal; 34.9 µM with SR leukemia; 46.8 µM in the test with SF-539 CNS; 78.8 µM in the test with A498 renal. Besides, the TGI with KM12 colon was more than 100 µM; with SW-620 colon, 41.8 µM; with BT-549 breast, 33.3 µM; in the test on CAKI-1 renal it was more than 100 µM; in the test with NCI-H23 lung, more than 100 µM; in the test on ACHN renal it was more than 100 µM. The TGI was 23.3 µM with HL-60(TB) leukemia; 31.9 µM with U251 CNS; more than 100 µM with NCI-H460 lung; 63.5 µM with T-47D breast; 55.5 µM with HOP-62 NSCLC; more than 100 µM in the test on COLO 205 colon. In addition, the TGI in the test on HCT-15 colon was 27.7 µM.
For the compound `c1ccc(COC2C3COC(O3)C(OCc3ccccc3)C2OCc2ccccc2)cc1` (stereo not given), the TGI in the test on 786-0 renal was more than 100 µM; with HOP-92 NSCLC it was more than 100 µM; in the test on TK-10 renal, more than 100 µM; in the test on SR leukemia, 25.4 µM; in the test with SF-539 CNS, more than 100 µM; in the test on A498 renal, more than 100 µM. For the same compound, the TGI in the test with KM12 colon, in the test on SW-620 colon, in the test with BT-549 breast, in the test with CAKI-1 renal, with NCI-H23 lung and in the test with ACHN renal was more than 100 µM each time. In addition, the TGI in the test with HL-60(TB) leukemia was 30.9 µM; in the test with U251 CNS, more than 100 µM; in the test with NCI-H460 lung, more than 100 µM; in the test on T-47D breast, more than 100 µM; with HOP-62 NSCLC, more than 100 µM; in the test on COLO 205 colon, more than 100 µM. Further, the TGI in the test on HCT-15 colon is more than 100 µM.
Consider `CC(=O)O[C@@H]1[C@H]2[C@@H](OC(=O)c3ccccc3)[C@@H](C)C[C@]2(O)[C@H](OC(C)=O)[C@@]2(C)[C@@H]3C[C@@](C)(OC(C)=O)C[C@@H](OC(C)=O)[C@@]3(OC(C)=O)C[C@@]12C`, for which the TGI with 786-0 renal, in the test on HOP-92 NSCLC, in the test with TK-10 renal, in the test on SR leukemia, in the test with SF-539 CNS and with A498 renal was more than 10 µM throughout. The TGI with KM12 colon, in the test on SW-620 colon, in the test with BT-549 breast, with CAKI-1 renal, with NCI-H23 lung and in the test on ACHN renal was more than 10 µM throughout. In addition, the TGI in the test on HL-60(TB) leukemia, in the test on U251 CNS, in the test on NCI-H460 lung, in the test on T-47D breast, in the test on HOP-62 NSCLC and in the test on COLO 205 colon was more than 10 µM throughout. Also, the TGI with HCT-15 colon is more than 10 µM.
In the case of `C=CCNC(=O)CN(CC(=O)O)C1CCCCC1N(CC(=O)O)CC(=O)O` (stereo not given), the TGI with 786-0 renal, in the test with HOP-92 NSCLC, in the test with TK-10 renal, in the test on SR leukemia, with SF-539 CNS and in the test with A498 renal was more than 100 µM throughout. The TGI in the test with KM12 colon, with SW-620 colon, in the test with BT-549 breast, with CAKI-1 renal, in the test on NCI-H23 lung and in the test with ACHN renal was more than 100 µM in each case. The TGI in the test on HL-60(TB) leukemia, with U251 CNS, in the test on NCI-H460 lung, in the test with T-47D breast, in the test on HOP-62 NSCLC and with COLO 205 colon was more than 100 µM in each case. The compound also showed a TGI with HCT-15 colon of more than 100 µM.
Take `Cc1cccc(CNc2ncnc3[nH]ncc23)c1`: the TGI in the test with 786-0 renal, with HOP-92 NSCLC, in the test on TK-10 renal, in the test with SR leukemia, with SF-539 CNS and with A498 renal was more than 100 µM throughout. For the same compound, the TGI with KM12 colon, with SW-620 colon, in the test on BT-549 breast, in the test on CAKI-1 renal, in the test with NCI-H23 lung and in the test on ACHN renal was more than 100 µM each time. The TGI in the test on HL-60(TB) leukemia, with U251 CNS, with NCI-H460 lung, in the test with T-47D breast, with HOP-62 NSCLC and in the test on COLO 205 colon was more than 100 µM each time. Also, in the test with HCT-15 colon, the TGI was more than 100 µM.
Consider `O=S(=O)(O)c1ccc2cc(N=Nc3c(O)ccc4ccccc34)ccc2c1`, for which the TGI in the test on 786-0 renal, in the test with HOP-92 NSCLC, in the test on TK-10 renal, in the test with SR leukemia, in the test with SF-539 CNS and in the test on A498 renal was more than 100 µM in each case. Moreover, the TGI in the test with KM12 colon, in the test with SW-620 colon, with BT-549 breast, in the test on CAKI-1 renal, in the test on NCI-H23 lung and in the test with ACHN renal was more than 100 µM each time. For the same compound, the TGI in the test on HL-60(TB) leukemia, in the test on U251 CNS, with NCI-H460 lung, in the test with T-47D breast, with HOP-62 NSCLC and with COLO 205 colon was more than 100 µM in each case. This compound returned a TGI in the test on HCT-15 colon of more than 100 µM.
For the compound `CN(C)C(F)=PC(F)(F)F` (stereo not given), the TGI in the test on 786-0 renal, in the test on HOP-92 NSCLC, in the test with TK-10 renal, with SF-539 CNS, in the test on A498 renal and in the test on KM12 colon was more than 100 µM throughout. For the same compound, the TGI in the test with SW-620 colon, in the test with CAKI-1 renal, with NCI-H23 lung, in the test with ACHN renal, in the test with M19-MEL melanoma and in the test with HL-60(TB) leukemia was more than 100 µM in each case. The TGI with U251 CNS, with NCI-H460 lung, in the test on HOP-62 NSCLC, in the test with COLO 205 colon and with HCT-15 colon was more than 100 µM in each case.
In the case of `CCCCN(C)C(=O)C1=C(C)NC(C)=C(C(=O)N(C)CCCC)C1`, the TGI with 786-0 renal, in the test with HOP-92 NSCLC, in the test on TK-10 renal, in the test with SR leukemia, in the test with SF-539 CNS and in the test on A498 renal was more than 100 µM throughout. Also, the TGI in the test with KM12 colon, in the test on SW-620 colon, in the test with BT-549 breast, with CAKI-1 renal, with NCI-H23 lung and in the test with ACHN renal was more than 100 µM in each case. The TGI in the test on HL-60(TB) leukemia, in the test with U251 CNS, in the test on NCI-H460 lung, in the test with T-47D breast, in the test with HOP-62 NSCLC and with COLO 205 colon was more than 100 µM each time. The compound further had a TGI in the test with HCT-15 colon of more than 100 µM.
